Values quoted from earlier work in patent publication US11896953B2, “HLB copolymers” (Sigma-Aldrich Co. LLC, priority 2017, dated 2024).

details: 20-analyte mix for extended screening (Table 22)

| SMILES | Log P |
| --- | --- |
| CN1CCN2c3ccccc3Cc3ccccc3C2C1 (centres unmarked) [Mianserin] | 3.52 |
| CN1CCN2c3ncccc3Cc3ccccc3C2C1 (centres unmarked) [Mirtazapine] | 2.90 |
| CN(C)CCC=C1c2ccccc2CCc2ccccc21 [Amitriptyline] | 5.10 |
| CCc1nn(CCCN2CCN(c3cccc(Cl)c3)CC2)c(=O)n1CCOc1ccccc1 [Nefazodone] | 4.70 |
| CN1[C@H]2CC[C@@H]1[C@@H](C(=O)O)[C@@H](OC(=O)c1ccccc1)C2 [Benzoylecgonine] | 1.71 |
| Cc1ccnc2c1NC(=O)c1cccnc1N2C1CC1 [Nevirapine] | 2.50 |
| CN1CCCCC1CCN1c2ccccc2Sc2ccc([S+](C)[O-])cc21 (centres unmarked) [Mesoridazine] | 3.90 |
| CN(C)CCN(Cc1cccs1)c1ccccn1 [Methapyrilene] | 2.87 |
| O=[N+]([O-])NC1=NCCN1Cc1ccc(Cl)nc1 [Imidacloprid] | 0.57 |
| CCCCc1nc(Cl)c(CO)n1Cc1ccc(-c2ccccc2-c2nn[nH]n2)cc1 [Losartan] | 6.10 |
| CNC(=C[N+](=O)[O-])NCCSCc1csc(CN(C)C)n1 [Nizatidine] | 1.10 |
| CC[C@H]1OC(=O)[C@H](C)[C@@H](O[C@H]2C[C@@](C)(OC)[C@@H](O)[C@H](C)O2)[C@H](C)[C@@H](O[C@@H]2O[C@H](C)C[C@H](N(C)C)[C@H]2O)[C@](C)(OC)C[C@@H](C)C(=O)[C@H](C)[C@@H](O)[C@]1(C)O [Clarithromycin] | 3.16 |
| N=C(N)NC(=O)c1nc(Cl)c(N)nc1N [Amiloride] | −0.30 |

same assay, conditions: analytes of the six analyte preliminary screen (Table 18)

| SMILES | Log P |
| --- | --- |
| Cc1ccc(C(N)=O)cc1 [p-Toluamide] | 1.2 |
| Oc1ccc2ccc(O)cc2c1 [2,7-dihydroxynaphthalene] | 2.3 |

same assay, conditions: eight analytes of the 3-step protocol evaluations (Table 25)

| SMILES | Log P |
| --- | --- |
| CNCCCC1c2ccccc2C=Cc2ccccc21 [Protriptyline] | 4.70 |

same assay, conditions: hydrophilic monomers

| SMILES | log P |
| --- | --- |
| C=CC#N [acrylonitrile] | 0.25 |
